Like-named read-outs stand apart in the source and are kept apart here.
Legend:
[1] = molecular target: T1, hERG potassium channel [hERG钾离子通道] (Homo sapiens, UniProt Q12809); assay: hERG potassium channel, whole-cell patch clamp (Example 73); assay type: cell-based
T1 construct: expressed in transfected cells; host or cells: HEK293 (stably transfected)

[2] = molecular target: T2, β-catenin/BCL9 protein-protein [β-catenin/BCL9蛋白-蛋白] (Homo sapiens, UniProt P35222); assay: β-catenin/BCL9 protein-protein affinity, fluorescence polarisation (Example 71); assay type: binding; details: better than compound c
T2 construct: β-catenin(1-781)
T2 sequence (P35222 1-781): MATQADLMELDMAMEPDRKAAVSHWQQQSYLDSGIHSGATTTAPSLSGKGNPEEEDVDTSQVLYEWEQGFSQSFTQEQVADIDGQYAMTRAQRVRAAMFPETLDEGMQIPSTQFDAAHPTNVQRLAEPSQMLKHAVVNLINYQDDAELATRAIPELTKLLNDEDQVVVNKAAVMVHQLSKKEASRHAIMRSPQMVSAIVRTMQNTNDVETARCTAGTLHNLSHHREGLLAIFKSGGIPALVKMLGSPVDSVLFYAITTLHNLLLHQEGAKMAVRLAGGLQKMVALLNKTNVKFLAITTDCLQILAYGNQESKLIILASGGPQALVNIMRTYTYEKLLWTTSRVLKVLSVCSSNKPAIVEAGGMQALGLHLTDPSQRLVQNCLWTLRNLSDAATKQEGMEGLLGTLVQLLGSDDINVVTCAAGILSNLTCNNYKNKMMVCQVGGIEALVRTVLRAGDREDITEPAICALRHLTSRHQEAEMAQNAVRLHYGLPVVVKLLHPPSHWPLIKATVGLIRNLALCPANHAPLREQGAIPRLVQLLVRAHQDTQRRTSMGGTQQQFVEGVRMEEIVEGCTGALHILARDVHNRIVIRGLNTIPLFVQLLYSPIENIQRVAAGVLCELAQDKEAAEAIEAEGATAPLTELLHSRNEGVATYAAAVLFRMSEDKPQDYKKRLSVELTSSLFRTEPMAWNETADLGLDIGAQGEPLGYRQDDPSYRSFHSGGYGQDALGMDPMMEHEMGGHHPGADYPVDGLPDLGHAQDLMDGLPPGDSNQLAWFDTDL

[3] = Liver microsome metabolic stability (Example 75); assay type: in vitro ADME; details: 0.5 mg/mL liver microsomal protein, 1μM, NADPH, 37℃
[4] = test system: CT26 colon cancer cells in BALB/c mice [CT26结肠癌细胞]; assay: In vivo experiment 1: CT26 colon cancer mouse model, II-25 and II-27 (Example 76); details: 30mg/kg once daily; for inhibition of tumour growth: after 5 days of dosing
[5] = test system: HEK293 human normal cells [HEK293人正常细胞]; details: 10μM
[6] = test system: CT-26 cells; assay: CCK-8 antiproliferative activity of II-39, CT-26; assay type: cell-based, human; details: 10μM
[7] = test system: CT26 colon cancer cells in BALB/c mice [CT26结肠癌细胞]; assay: In vivo experiment 2: CT26 colon cancer mouse model, II-39 (Example 76)
[8] = test system: HCT-116, CT-26, SW480, A549, RKO cells [人结肠癌细胞HCT-116、人结肠癌细胞CT-26、人结肠癌细胞SW480、人肺癌细胞A549、人结肠腺癌细胞RKO]; assay: CCK-8 antiproliferative activity of II-39, cancer cell panel (Example 72, part 2); assay type: cell-based, human; details: 10μM
[9] = whole-cell patch clamp, HEK293 cells stably transfected, room temperature, read-out: hERG IC50

T1 sequence (Q12809 whole entry): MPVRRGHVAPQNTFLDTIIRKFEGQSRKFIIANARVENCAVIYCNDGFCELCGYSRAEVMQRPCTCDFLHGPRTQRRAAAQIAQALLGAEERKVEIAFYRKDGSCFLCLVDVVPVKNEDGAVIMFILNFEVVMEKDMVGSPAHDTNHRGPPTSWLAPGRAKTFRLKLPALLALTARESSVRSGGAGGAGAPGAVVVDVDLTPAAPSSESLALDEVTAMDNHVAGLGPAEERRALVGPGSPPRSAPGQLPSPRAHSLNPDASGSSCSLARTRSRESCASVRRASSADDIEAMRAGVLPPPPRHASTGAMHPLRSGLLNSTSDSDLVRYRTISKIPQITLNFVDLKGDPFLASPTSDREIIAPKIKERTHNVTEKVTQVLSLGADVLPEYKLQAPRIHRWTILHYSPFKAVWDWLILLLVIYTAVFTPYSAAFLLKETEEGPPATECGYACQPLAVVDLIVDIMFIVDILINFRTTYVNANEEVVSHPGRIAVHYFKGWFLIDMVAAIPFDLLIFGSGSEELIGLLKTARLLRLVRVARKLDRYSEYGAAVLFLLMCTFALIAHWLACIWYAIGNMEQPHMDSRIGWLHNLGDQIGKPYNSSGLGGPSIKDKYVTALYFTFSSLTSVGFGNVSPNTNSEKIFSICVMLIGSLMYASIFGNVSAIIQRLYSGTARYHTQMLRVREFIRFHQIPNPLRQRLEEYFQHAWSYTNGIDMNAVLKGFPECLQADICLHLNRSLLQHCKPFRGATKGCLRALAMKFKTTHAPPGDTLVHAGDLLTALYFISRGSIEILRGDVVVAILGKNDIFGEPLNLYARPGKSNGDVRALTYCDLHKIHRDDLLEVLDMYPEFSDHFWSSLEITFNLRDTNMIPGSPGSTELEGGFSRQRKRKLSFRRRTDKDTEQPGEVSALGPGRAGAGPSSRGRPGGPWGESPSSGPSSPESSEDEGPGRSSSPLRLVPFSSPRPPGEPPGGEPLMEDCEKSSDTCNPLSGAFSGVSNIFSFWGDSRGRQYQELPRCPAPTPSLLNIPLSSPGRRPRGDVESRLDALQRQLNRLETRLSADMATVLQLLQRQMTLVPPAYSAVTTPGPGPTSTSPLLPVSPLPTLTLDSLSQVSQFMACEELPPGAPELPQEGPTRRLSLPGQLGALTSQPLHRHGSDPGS

affinity activity compared with reference compound c [2]	liver microsome metabolic stability ([3]; Table 4)	SMILES	IC50 [1, 9] [µM]	further results
–	–	CC(C)(Oc1cccc(C2CCCN(C(=O)c3cccc(-c4ccc(F)c(F)c4)c3)C2)c1)C(=O)O (centres unmarked) [化合物II-2, 2-(3-(1-(3',4'-二氟-[1,1'-联苯基]-3-羰基)哌啶-3-基)苯氧基)-2-甲基丙酸]	> 10	–
亲和活性更优	肝微粒体代谢稳定	CC(C)c1ccc(-c2cccc(S(=O)(=O)N3CCCC(c4cccc(OC(C)(C)C(=O)O)c4)C3)c2)cc1 (centres unmarked) [化合物II-13, 2-(3-(1-((4'-异丙基-[1,1'-联苯基]-3-基)磺酰基)哌啶-3-基)苯氧基)-2-甲基丙酸]	> 10	–
–	–	CC(C)(Oc1cccc(C2CCCN(S(=O)(=O)c3cccc(-c4ccsc4)c3)C2)c1)C(=O)O (centres unmarked) [化合物II-14, 2-甲基-2-(3-(1-((3-(噻吩-3-基)苯基)磺酰基)哌啶-3-基)苯氧基)丙酸]	> 10	–
亲和活性更优	肝微粒体代谢稳定	CC(C)c1ccc(-c2cccc(S(=O)(=O)N3CCCC(c4cccc(OC(C)(C)C(=O)NS(=O)(=O)c5ccccc5)c4)C3)c2)cc1 (centres unmarked) [化合物II-28, 2-(3-(1-((4'-异丙基-[1,1'-联苯基]-3-基)磺酰基)哌啶-3-基)苯氧基)-2-甲基-N-(苯磺酰基)丙酰胺]	> 10	–
–	–	CC(C)c1ccc(-c2cccc(S(=O)(=O)N3CCCC(c4cccc(OC(C)(C)C(=O)NS(=O)(=O)c5ccc(C(F)(F)F)cc5)c4)C3)c2)cc1 (centres unmarked) [化合物II-39, 2-(3-(1-((4'-异丙基-[1,1'-联苯]-3-基)磺酰基)哌啶-3-基(苯氧基)-2-甲基-N-((4-(三氟甲基)苯基)磺酰)丙酰胺]	> 10	liver microsome metabolic stability ([3]; Table 5): 肝微粒体代谢稳定; effect on normal cells [5]: 没有影响; antiproliferative activity compared with ICG-001 [6]: 显著的优于阳性对照药ICG-001; body weight ([7]; II-39 30mg/kg i.p. once daily): 未观察到小鼠体重有明显减轻; tolerability / safety ([7]; II-39 30mg/kg i.p. once daily): 动物耐受,安全性良好; tumour inhibition in combination with PD-1 antibody ([7]; II-39 30mg/kg i.p. once daily + PD-1 antibody 10mg/kg i.p. twice a week): 肿瘤得到进一步的抑制; inhibition of colon cancer growth ([7]; II-39 30mg/kg intraperitoneal once daily): 可以很好的抑制结肠癌的生长; TGI ([7]; combination: II-39 30mg/kg i.p. once daily + PD-1 antibody 10mg/kg i.p. twice a week): 81.1%; anti-colon-cancer activity [8]: 表现出较好的抗结肠癌活性
亲和活性更优	–	CC(C)(Oc1cccc(C2CCCN(C(=O)c3cccc(-c4ccc(F)c(F)c4)c3)C2)c1)C(=O)N1C[C@@H]2C[C@H]1CN2.Cl (stereo partly drawn) [化合物II-66, (1S,4S)-5-(2-(3-(1-(3',4'-二氟-[1,1'-联苯]-3-羰基)哌啶-3-基)苯氧基)-2-甲基丙酰基)-2,5-二氮杂二环[2.2.1]庚烷-2-氯化铵]	–	–
亲和活性更优	–	COc1ccc(S(=O)(=O)NC(=O)C(C)(C)Oc2cccc(C3CCCN(C(=O)c4cccc(-c5ccc(F)c(F)c5)c4)C3)c2)cc1 (centres unmarked) [化合物II-68, 2-(3-(1-(3',4'-二氟-[1,1'-联苯]-3-羰基)哌啶-3-基)苯氧基)-N-((4-甲氧基苯基)磺酰基)-2-甲基丙酰胺]	–	–

SMILES	affinity activity compared with reference compound c [2]	liver microsome metabolic stability ([3]; Table 4)	IC50 [1, 9] [µM]	further results
Cc1ccc(-c2cccc(S(=O)(=O)N3CCCC(c4cccc(OC(C)(C)C(=O)N5CCNCC5)c4)C3)c2)cc1C.Cl (centres unmarked) [化合物II-25, 4-(2-(3-(1-((3',4'-二甲基-[1,1'-联苯]-3-基)磺酰基)哌啶-3-基)苯氧基)-2-甲基丙酰基)哌嗪-1-氯化铵]	亲和活性更优	–	–	tolerability / safety [4]: 动物耐受,安全性良好; inhibition of tumour growth [4]: 可显著抑制小鼠体内肿瘤的生长; IC50 [1]: > 10 µM
Cc1ccc(-c2cccc(S(=O)(=O)N3CCCC(c4cccc(OC(C)(C)C(=O)NS(=O)(=O)c5ccccc5)c4)C3)c2)cc1C (centres unmarked) [化合物II-27, 2-(3-(1-((3',4'-二甲基-[1,1'-联苯基]-3-基)磺酰基)哌啶-3-基)苯氧基)-2-甲基-N-(苯磺酰基))丙酰胺]	亲和活性更优	肝微粒体代谢稳定	> 10	tolerability / safety [4]: 动物耐受,安全性良好; inhibition of tumour growth [4]: 可显著抑制小鼠体内肿瘤的生长

From patent CN116444420A, “β-catenin/BCL9蛋白蛋白相互作用的小分子抑制剂及其应用” (Shanghai Pharmaceutical Industry Research Institute Co ltd, priority 2021, dated 2023)
